Assay results reported in the NIST ThermoML archive (doi:10.1016/j.fluid.2016.10.004).

Settings: for mass density: 100 kPa, Liquid, buoyancy

CCC[n+]1ccccc1C.O=S(=O)([N-]S(=O)(=O)C(F)(F)F)C(F)(F)F
surface tension liquid-gas [mN/m]
Settings | Ring tensiometer | Wilhelmy plate
264.98 K | 37.98 | –
274.35 K | 37.65 | –
278.08 K | 37.48 | –
283.24 K | 37.32 | –
283.37 K | – | 36.98
288.21 K | 37.06 | –
288.25 K | – | 36.82
293.4 K | 36.9 | –
293.42 K | – | 36.65
298.31 K | 36.64 | 36.5
302.93 K | 36.45 | –
303.05 K | – | 36.31
307.78 K | 36.29 | –
307.82 K | – | 36.11
312.97 K | 36.07 | 35.95
318.38 K | – | 35.76
318.39 K | 35.83 | –
322.88 K | – | 35.52
322.94 K | 35.54 | –
328.34 K | 35.29 | 35.32
333.16 K | 35.03 | 35.12
337.5 K | 34.74 | –
337.93 K | – | 34.92
343.2 K | – | 34.77
343.21 K | 34.63 | –
347.6 K | – | 34.53
347.65 K | 34.27 | –
353.02 K | 34.14 | 34.38
359.26 K | – | 34.14
359.32 K | 33.83 | –
363.55 K | – | 33.94
363.67 K | 33.73 | –

Settings | mass density [kg/m3]
274.36 K | 1487.31
278.09 K | 1484.28
283.39 K | 1478.78
288.24 K | 1473.7
293.42 K | 1468.58
298.29 K | 1464.23
303.1 K | 1459.95
307.9 K | 1454.39
313.05 K | 1449.74
318.4 K | 1444.8
322.98 K | 1440.18
328.44 K | 1435.36
333.33 K | 1430.49
338.04 K | 1426.36
343.34 K | 1421.49
347.7 K | 1417.08
353.28 K | 1412.49
359.15 K | 1407.9
363.7 K | 1403.29

CCC[n+]1ccccc1.O=S(=O)([N-]S(=O)(=O)C(F)(F)F)C(F)(F)F [1-propylpyridinium bis((trifluoromethyl)sulfonyl)amide]
Settings | surface tension liquid-gas [mN/m]
318.35 K, Wilhelmy plate | 34.52
318.38 K, Ring tensiometer | 34.67
322.86 K, Wilhelmy plate | 34.29
322.89 K, Ring tensiometer | 34.46
328.15 K, Wilhelmy plate | 34.02
328.19 K, Ring tensiometer | 34.21
333.17 K, Wilhelmy plate | 33.75
333.21 K, Ring tensiometer | 33.97
338 K, Wilhelmy plate | 33.56
338.03 K, Ring tensiometer | 33.8
343.1 K, Wilhelmy plate | 33.35
343.11 K, Ring tensiometer | 33.56
347.59 K, Ring tensiometer | 33.34
347.63 K, Wilhelmy plate | 33.13
353.31 K, Wilhelmy plate | 32.87
353.34 K, Ring tensiometer | 33.1
358.35 K, Wilhelmy plate | 32.64
358.37 K, Ring tensiometer | 32.82
362.09 K, Wilhelmy plate | 32.43
362.18 K, Ring tensiometer | 32.61

Settings | mass density [kg/m3]
318.41 K | 1468.8
323.02 K | 1464.45
328.3 K | 1459.61
333.28 K | 1454.58
338.11 K | 1450.05
343.18 K | 1445.34
347.36 K | 1440.68
353.35 K | 1435.49
357.87 K | 1430.78
362.15 K | 1426.55

CCC[n+]1cccc(C)c1.O=S(=O)([N-]S(=O)(=O)C(F)(F)F)C(F)(F)F
surface tension liquid-gas [mN/m]
Settings | Ring tensiometer | Wilhelmy plate
264.14 K | 36.35 | –
268.06 K | 36.23 | –
273.39 K | 36.1 | –
273.45 K | – | 35.78
278.42 K | 35.88 | 35.59
283.19 K | 35.6 | –
283.2 K | – | 35.41
288.5 K | 35.39 | –
288.67 K | – | 35.22
292.92 K | 35.23 | –
292.99 K | – | 35.06
298.42 K | 35.03 | –
298.44 K | – | 34.88
303.1 K | 34.83 | –
303.12 K | – | 34.68
308.03 K | 34.64 | –
308.04 K | – | 34.53
312.72 K | – | 34.29
312.75 K | 34.39 | –
318.22 K | 34.12 | –
318.25 K | – | 34.08
323.19 K | – | 33.91
323.23 K | 33.95 | –
328.11 K | 33.69 | 33.65
333.15 K | – | 33.46
333.21 K | 33.43 | –
339.21 K | – | 33.18
339.28 K | 33.18 | –
342.59 K | 33.03 | –
342.65 K | – | 33.08
347.77 K | – | 32.85
347.91 K | 32.78 | –
352.59 K | – | 32.7
352.62 K | 32.49 | –

Settings | mass density [kg/m3]
264.25 K | 1481.37
268.17 K | 1476.75
273.62 K | 1471.18
278.64 K | 1466.69
283.23 K | 1461.95
288.58 K | 1456.8
293 K | 1452.82
298.44 K | 1448.15
303.17 K | 1443.76
308.13 K | 1438.23
312.76 K | 1433.63
318.32 K | 1428.63
323.28 K | 1423.98
328.19 K | 1419.2
333.31 K | 1414.52
339.09 K | 1409.83
342.77 K | 1406.02
348.02 K | 1401
352.77 K | 1396.52
358.08 K | 1391.47
363.28 K | 1386.7

CCC[n+]1ccc(C)cc1.O=S(=O)([N-]S(=O)(=O)C(F)(F)F)C(F)(F)F
Settings | mass density [kg/m3]
268.1 K | 1482.1
278.71 K | 1469.95
283.45 K | 1465.84
288.19 K | 1461.42
293.46 K | 1456.03
298.38 K | 1450.93
303.12 K | 1446.6
308.24 K | 1440.93
313.15 K | 1435.96
318.2 K | 1431.59
323.16 K | 1426.43
328.14 K | 1421.84
333.57 K | 1416.94
338.25 K | 1412.36
343.8 K | 1407.53
348.11 K | 1402.8
353.25 K | 1398.13
357.74 K | 1394
362.63 K | 1389.16

surface tension liquid-gas [mN/m]
Settings | Ring tensiometer | Wilhelmy plate
288.19 K | 35.82 | –
288.22 K | – | 35.61
293.49 K | 35.56 | 35.39
298.37 K | 35.36 | 35.2
303.11 K | 35.17 | –
303.12 K | – | 35
308.15 K | 34.96 | –
308.17 K | – | 34.85
313.06 K | 34.66 | 34.65
318.14 K | – | 34.48
318.15 K | 34.46 | –
323.06 K | – | 34.25
323.07 K | 34.23 | –
327.97 K | 33.95 | –
328 K | – | 34.04
332.97 K | 33.7 | –
333.36 K | – | 33.79
338.08 K | – | 33.6
338.17 K | 33.44 | –
343.75 K | – | 33.43
343.8 K | 33.2 | –
347.87 K | – | 33.2
348.11 K | 32.98 | –
353.29 K | – | 33.01
353.47 K | 32.7 | –
357.58 K | – | 32.83
357.72 K | 32.42 | –
362.45 K | – | 32.61
362.65 K | 32.22 | –
